The text below walks through data of patent US5362724A, “Thioalkylthio carbacephalosporin derivatives” (Shionogi & Co., Ltd., priority 1992, dated 1994).

The test system of one series is E. coli JC-2. As to the kind of experiment: In vitro antibacterial activity (MIC, two-fold agar dilution) against E. coli JC-2. It is filed as cell-based. The settings on record: Escherichia coli, JC2. On the procedure: (§1) The in vitro antibacterial activity of a compound as prepared in the foregoing Example was evaluated as follows. A compound to be tested was dissolved in 0.01N aqueous solution of sodium hydrogen carbonate and the solution was applied to an agar plate and the minimal inhibitory concentration (MIC) against each bacterium was measured by two-fold dilution method according to the standard method of the Japan Society of Chemotherapy.
(§2) In the assay, as a control compound, 7β-[(Z)-2-(2-amino-4-thiazolyl)-2-hydroxyiminoacetamido]-3-(1,2,3-triazol-4-yl)thiomethylthio-3-cephem-4-carboxylic acid (a thiomethylthio cephalosporin disclosed in U.S. patent application Ser. No. 07/729,413, filed on Jul. 12, 1991, now U.S. Pat. No. 5,214,037, and EPO Application Publication No. 0 467 647 A2) was used.
(§3) In the tables, Compound A is a compound of the invention and Compound B is a control compound.

Another series deals with E. coli EC-14. As to the kind of experiment: In vitro antibacterial activity (MIC, two-fold agar dilution) against E. coli EC-14. Format: cell-based. The conditions noted are these: Escherichia coli, EC14. On the procedure: as §1, §2, §3
For another series, the system named is E. coli SR377. As to the kind of experiment: In vitro antibacterial activity (MIC, two-fold agar dilution) against E. coli SR377. Format: cell-based. The conditions noted are these: Escherichia coli. Here is the method:
as §1, §2, §3
A general note: Agar dilution tests growth on a series of plates holding different concentrations.

Another series concerns E. coli SR73. In words: In vitro antibacterial activity (MIC, two-fold agar dilution) against E. coli SR73. Format: cell-based. The settings on record: Escherichia coli. Here is the method:
as §1, §2, §3

A further series deals with K. pneumoniae SRI. As to the kind of experiment: In vitro antibacterial activity (MIC, two-fold agar dilution) against K. pneumoniae SRI. Format: cell-based. The settings on record: Klebsiella pneumoniae. On the procedure: as §1, §2, §3
In another series the test system is E. cloacae SR233. In words: In vitro antibacterial activity (MIC, two-fold agar dilution) against E. cloacae SR233. Format: cell-based. The conditions noted are these: Enterobacter cloacae. Here is the method:
as §1, §2, §3

In another series the test system is E. cloacae ATCC 13047. As to the kind of experiment: In vitro antibacterial activity (MIC, two-fold agar dilution) against E. cloacae ATCC 13047. It is filed as cell-based. The settings on record: Enterobacter cloacae, ATCC13047. On the procedure: as §1, §2, §3
Series [1] concerns S. maecescense ATCC 13880. As to the kind of experiment: In vitro antibacterial activity (MIC, two-fold agar dilution) against S. marcescense ATCC 13880. It is filed as cell-based, Seratia marcescense. On the procedure:
as §1, §2, §3

The nature of series [2]: Binding ability to plasma proteins. The conditions noted are these: tentative value. It is filed as in vitro ADME.
A short description of series [3]: In vivo pharmacokinetics, blood level in mice after administration. The settings on record: mouse, 10 mg/kg, 3 hr after administration. Here is the method: The in vivo pharmacokinetics was also investigated in mice by measuring the blood level at 3 hr after administrating a test compound to a mouse (10 mg/kg).
as §2, §3

Structures are written as SMILES. ≈ marks a conversion by molar mass, not a printed value.

On to `Nc1nc(/C(=N/O)C(=O)N[C@@H]2C(=O)N3C(C(=O)O)=C(SCSc4c[nH]nn4)CC[C@H]23)cs1` [Compound A, 7β-[(Z)-2-(2-Aminothiazol-4-yl)-2-hydroxyiminoacetamido]-3-(1,2,3-triazol-4-ylthiomethylthio)-1-carba-3-cephem-4-carboxylic acid], for which the MIC (usually the lowest concentration found to suppress growth) in the series with E. coli JC-2 was 0.05 µg/mL (≈ 0.101 µM); in the series with E. coli EC-14, 0.025 µg/mL (≈ 0.0503 µM); against E. coli SR377, 0.2 µg/mL (≈ 0.403 µM); against E. coli SR73, 0.39 µg/mL (≈ 0.785 µM); in the series with K. pneumoniae SRI, 0.025 µg/mL (≈ 0.0503 µM); in the series with E. cloacae SR233, 0.1 µg/mL (≈ 0.201 µM). Besides, the figures for the MIC (with E. cloacae ATCC 13047; in [1]) were 12.5 µg/mL (≈ 25.2 µM) and 0.2 µg/mL (≈ 0.403 µM), respectively. For the same compound, in series [2], the fraction unbound (as a rule, free concentration divided by total concentration) is 0.1. The concentration at 3 h in series [3] worked out at 82000 ng/mL.
Consider `Nc1nc(/C(=N/O)C(=O)N[C@@H]2C(=O)N3C(C(=O)O)=C(SCSc4c[nH]nn4)CS[C@H]23)cs1` [Compound B, 7β-[(Z)-2-(2-amino-4-thiazolyl)-2-hydroxyiminoacetamido]-3-(1,2,3-triazol-4-yl)thiomethylthio-3-cephem-4-carboxylic acid], for which the minimal inhibitory concentration (MIC) in the series on E. coli JC-2 was determined as 0.3 µg/mL (≈ 0.583 µM); with E. coli EC-14 it was 0.1 µg/mL (≈ 0.194 µM); in the series on E. coli SR377 it was 0.8 µg/mL (≈ 1.55 µM); against E. coli SR73, 1.6 µg/mL (≈ 3.11 µM); against K. pneumoniae SRI it was 0.1 µg/mL (≈ 0.194 µM); in the series with E. cloacae SR233, 0.8 µg/mL (≈ 1.55 µM). The MIC in the series on E. cloacae ATCC 13047 is 100 µg/mL (≈ 194 µM); in series [1], 3.2 µg/mL (≈ 6.22 µM). This compound also showed a fraction unbound in series [2] of 0.04. In addition, in series [3], the concentration at 3 h amounted to 18000 ng/mL.
